Data on 2 molecules can be found in patent publication US8642656B2, “Calixarene-based peptide conformation mimetics, methods of use, and methods of making” (priority 2004, dated 2014).

Test [1] has as its system LPS from K. pneumoniae. The test can be described thus: LPS neutralization assay (Limulus amoebocyte lysate, QCL-1000). In kind it is biochemical, Klebsiella pneumoniae. To be noted: read-out: IC50 values (μM) for LPS binding, Klebsiella. The essentials:
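Absorbance at 405-410 nm tracks pNA released from a synthetic substrate by LPS-activated lysate enzyme. Compounds were titrated against 0.04 units of each LPS. IC50 values derive from sigmoidal curve fitting.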

In test [2] the test system is bFGF-stimulated HUVEC. The test can be described thus: EC proliferation, [3H]-thymidine incorporation, bFGF-stimulated HUVEC (Example 48). The format is cell-based, human. As to conditions: for pIC50: bFGF-stimulated HUVEC, highest dose tested 25 μM; for activity as anti-angiogenic agents, ranking in words: library of 23 compounds. As for the experimental part:
Proliferation is expressed as mean counts per minute (cpm) of quadruplicate cultures in three independent experiments (±SEM). […] Human umbilical vein derived EC (HUVEC) were harvested from normal human umbilical cords by perfusion with 0.125% trypsin/EDTA. Harvested HUVECs were cultured in gelatin coated tissue culture flasks and subcultured 1:3 once a week in culture medium (RPM1-1640 with 20% human serum (HS), supplemented with 2 mM glutamine and 100 U/mL penicillin and 0.1 mg/mL streptomycin). Statistical analysis was performed by using the Student's t-test.
A general note: Uptake of a labelled nucleoside into DNA is a usual measure of proliferation.

Test [3] deals with fibroblasts. Kind of test: Proliferation of fibroblasts (general cell toxicity check). In kind it is cell-based.
For test [4], the system named is MA148 human ovarian carcinoma. The test can be described thus: MA148 tumor growth model in athymic mice. In kind it is in vivo. As to conditions: for tumor growth inhibition: MA148, end of 28 days; for MA148 tumor growth (in words): tumor-bearing mice. The method, then: Female athymic nude mice (nu/nu, 5-6 weeks old) were used. These mice were purchased from the National Cancer Institute and allowed to acclimatize to local conditions for at least one week. Animals were given water and standard chow ad libitum, and were kept on a 12-hour light/dark cycle. All experiments were approved by the University of Minnesota Research Animal Resources ethical committee. Mice were randomized and split into three groups: 1) human serum albumin (10 mg/kg/day), 2) βpep-25 (10 mg/kg/day) and 3) peptide mimetic agent (5 mg or 10 mg/kg/day). Test compounds were diluted in DMSO and administered using osmotic mini-pumps (Durect, Cupertino, Calif.). Exponentially growing MA148 human ovarian carcinoma cells, kindly provided by Prof. Ramakrishnan (R. P. Dings et al., Cancer Res., 63, 382-385 (2003)) or B16 mouse melanoma cells were cultured in RPM1 1640 medium (Life Technologies, Grand Island, N.Y.). This medium was supplemented with 10% fetal bovine serum and 1% penicillin/streptomycin (Cellgro, Mediatech, Washington, D.C.) at 37° C and 5% CO2. One hundred microliters (100 μL) of this tumor cell suspension (2×10^7 cells/ml) was then injected subcutaneously into the right flank of each mouse. Pumps were implanted into the left flank of mice for subcutaneous administration of compound over a 28-day treatment span.
Two variants of this model were used: prevention and intervention. For the prevention variant, treatment was initiated at the time of inoculation with MA148 cells. For the intervention variant, tumors were allowed to grow to an average size of 50 mm^3 (usually day 7 post inoculation) before treatment was initiated. With either variant, animals were randomized prior to the initiation of treatment. Treatment was administered via osmotic mini-pumps (Durect, Cupertino, Calif.), which were implanted subcutaneously in the left flank of mice. Concentrated solutions of βpep-25 or DBF analogs were formulated such that the 28-day treatment period would be covered by implantation of a single pump. In each study, control groups of animals were administered either PBS or PBS containing human serum albumin.
Female athymic nude mice (nu/nu, 5-6 weeks old) or C57BL/6 male mice were purchased from the National Cancer Institute and allowed to acclimatize to local conditions for at least one week. Animals were provided water and standard chow ad libitum, and were kept on a 12 hour light/dark cycle. All experiments followed protocols approved by the University of Minnesota Research Animal Resources Ethical Committee. Exponentially growing MA148 human ovarian carcinoma cells, kindly provided by Prof. Ramakrishnan (Dings et al., Cancer Res 63, 382-385 (2003)), and B16F10 murine melanoma cells, kindly provided by Prof. Fidler, were cultured in RPM1 1640 medium (Life Technologies, Grand Island, N.Y.) (van der Schaft, et al., Faseb J 16, 1991-1993 (2002)). This medium was supplemented with 10% fetal bovine serum and 1% penicillin/streptomycin (Cellgro, Mediatech, Washington, D.C.) at 37° C. and 5% CO2. 100 μL of this tumor cell suspension (2×10^7 MA148 cells/ml and 2×10^6 B16F10 cells/ml) was then injected subcutaneously into the right hind flank of each mouse (athymic or C57BL/6, respectively).
Tumors were allowed to grow to an average size of at least 50 mm^3 before treatment was initiated, and animals were randomized prior to the initiation of treatment. Treatment was administered in one of two ways: s.c. from osmotic mini-pumps, and i.p. injection. Osmotic mini-pumps (Durect, Cupertino, Calif.) were implanted subcutaneously in the left flank of mice, and concentrated solutions of calixarene analogs or βpep-25 were formulated in PBS containing 30% (v/v) DMSO such that the 14-day or 28-day treatment period would be covered by implantation of a single pump. In each study, control groups of animals were administered either PBS (30% DMSO v/v) or PBS containing human serum albumin to control for protein content. […]

Test [5] relates to MA148 tumor. Kind of test: TUNEL staining for total cell apoptosis, MA148 tumors. In kind it is in vivo, mice. To be noted: mean ± standard error, 20 images. As for the experimental part: To assess the extent of total cell apoptosis, tumor tissue sections were stained by using the TUNEL (terminal deoxyribonucleotidyl transferase-mediated dUTP-nick-end labeling) assay, which was performed according to the manufacturer's instructions (In situ cell death detection kit, fluorescein; TUNEL, Roche). After 1-hour incubation at room temperature, slides were washed with PBS and immediately imaged using an Olympus BX-60 fluorescence microscope at 200× magnification.

[6] abbreviates: 10 mg/kg/day s.c. osmotic mini-pump.

pIC50: −log10 of the molar value. Entries after “also recorded” stand apart in the source; their conditions may differ. Where two headings read alike, the source gives them in different places.

The term IC50 denotes the concentration that gives 50% inhibition.

As for “5,11,17,23-Tetra-tert-butyl-25,27-bis(2-guanidinoethoxy)-26,28-dihydroxy calix[4]arene trifluoroacetic acid salt [Compound 27]”, in test [1] (Table 3, errors estimated ±30%), the IC50 is above 5 µM. Further, the pIC50 in test [2] is 5.10; in test [3] (read-out: concentration giving 50% growth inhibition, fibroblasts), around 4.70. In addition, the “activity as anti-angiogenic agents, ranking in words” value in test [2] is listed as “most active as anti-angiogenic agents”. The tumor growth inhibition entry in test [4] (2.7 mg/kg/day s.c. osmotic mini-pump) and in test [4] (setting [6]) was “about 65%” in each case. Moreover, the “MA148 tumor growth (in words)” value in test [4] (trifluoroacetic acid salt) is given as “inhibits MA148 tumor growth; also recorded: significantly inhibited”. In addition, the Apoptosis is on record as 2418 ± 72 pixel counts per image in test [5] (MA148, 2.7 mg/kg) and 2333 ± 173 pixel counts per image in test [5] (MA148, 10 mg/kg).
As to `CN(C)CCNC(=O)COc1c2cccc1Cc1cccc(c1OCC(=O)NCCN(C)C)Cc1cccc(c1OCC(=O)NCCN(C)C)Cc1cccc(c1OCC(=O)NCCN(C)C)C2` [Compound 40], the IC50 in test [1] (Table 2) is 1.5 µM; in test [1] (Table 3, errors estimated ±30%) it was 1.5 µM. In test [2], this molecule had a pIC50 of 5.70. In addition, the “activity as anti-angiogenic agents, ranking in words” value in test [2] was “most active as anti-angiogenic agents”. Moreover, the “concentration giving 50% growth inhibition, fibroblasts” value in test [3] is on record as “no delectable effects”. Also, the tumor growth inhibition entry was “about 65%” in test [4] (2.4 mg/kg/day s.c. osmotic mini-pump) and 81% in test [4] (setting [6]). The entries for the “MA148 tumor growth (in words)” value in test [4] and in test [4] (listed as KM0118 (40)) were “inhibition of MA148 tumor growth” and “significantly inhibited”, respectively. Besides, the Apoptosis is on record as 2919 ± 144 pixel counts per image in test [5] (MA148, 2.4 mg/kg) and 2323 ± 171 pixel counts per image in test [5] (MA148, 10 mg/kg).
